According to patent publication US20230145200A1, “COMPOSITIONS AND METHODS OF TREATING CANCER” (Tillead Therapeutics, Inc., priority 2020, published 2023):
Where a chain is given by its changes, count along the chain named. “Also recorded” adds a separate entry of the source.

Columns and labels:
MC38 cells [1] = assay: Apoptosis flow cytometry assay (FITC Annexin V/PI); assay type: cell-based, murine; details: for apoptosis induction in MC38 cells: agent alone: Venetoclax 3 μM, Doxorubicin 1 μM, Docetaxel 10 μM, Simvastatin 10 μM
Method: Cell lines and drugs: MC38 and B16 cell lines were derived from C57BL6 murine colon adenocarcinoma and melanoma cells, respectively. The cells were maintained in Dulbecco's modified Eagle's medium (DMEM) supplemented with 10% heat-inactivated fetal bovine serum (FBS) and 100 U/mL penicillin/streptomycin. The CT26 cells were derived from murine colon adenocarcinoma cells and cultured in RPMI1640 with 10% FBS and 2 mM GlutaMAX.
Apoptosis flow cytometry assay: FITC Annexin V Apoptosis Detection Kit with PI (BioLegend) was used for apoptosis detection. The MC38 cells were seeded in 24-well plate with 1×10^5 cells/well and cultured overnight. […] After 24 hours treatment, cells were collected and dissociated as single cell suspensions for Annexin V/PI staining. In briefing, cells were washed twice with cold BioLegend's Cell Staining Buffer, then resuspended in […] Annexin V Binding Buffer. […] FITC Annex V and […] Propidium Iodide (PI) Solution were added in each sample. The samples were gently vortexed and incubated for 15 minutes at room temperature in the dark. Wash the samples with Cell Staining Buffer one time and resuspend cells in […] Cell Staining Buffer for flow cytometry analysis. The data were recorded on BD Accuri™ C6 plus flow Cytometer and analyzed with FlowJo software.

IFNβ = assay: Interferon-beta (IFNβ) ELISA assay of MC38 cell culture supernatants; assay type: cell-based, murine; details: 24 hours
Method: The concentration of IFNβ was measured with VeriKine-HS Interferon Beta Serum ELISA Kit (PBL Assay Science) in accordance with the manufacturer's instruction. The data of absorbance was recorded at 450 nm by using BioTek synergy 4 plate reader and analyzed with GraphPad software.

caspase-3 [2] = molecular target: T1, caspase-3 (Mus musculus, UniProt P70677); assay: Caspase-3 activity assay in MC38 cells; assay type: cell-based, murine
T1 construct: the cells were lysed in 25 μL 1× lysis buffer on ice for 20 min; endogenous in cells; host or cells: MC38 cells (lysate)
T1 sequence (P70677 29-175 limits assumed): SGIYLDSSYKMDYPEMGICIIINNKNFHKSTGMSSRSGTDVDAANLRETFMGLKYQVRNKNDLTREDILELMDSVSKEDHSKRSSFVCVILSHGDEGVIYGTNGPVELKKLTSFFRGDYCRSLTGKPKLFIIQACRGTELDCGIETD
T1 sequence (P70677 176-277 limits assumed): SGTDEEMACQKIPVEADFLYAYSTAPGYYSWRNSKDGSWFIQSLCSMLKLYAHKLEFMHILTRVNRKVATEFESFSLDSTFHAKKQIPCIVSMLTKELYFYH
Method: Caspase-3 activity assay: Caspase-3 activity was measured by using Sigma Caspase 3 Assay Kit, Fluorimetric. In brief, MC38 cells were cultured in 96-well plates and treated with Docetaxel and Docetaxel/Emricasan combination, respectively. Dose-dependent effect of Docetaxel on caspase-3 activity was tested in MC38 cells; Docetaxel/Emricasan combination treatment was applied to reverse Docetaxel induced caspase-3 activity. After 24 h drug treatment, the cells were lysed in 25 μL 1× lysis buffer on ice for 20 min, then added 200 μL of 16.7 μM Ac-DEVD-AMC substrate solution to incubate at RT in the dark for 30 min. The fluorescent signals were read in BioTek Synergy 4 plate reader at excitation 360 nm and emission 460 nm.

MC38 cells [3] = assay: Tumor cell killing / cytotoxicity, MC38 (FIG. 11a); assay type: cell-based, murine
A549 = assay: Tumor cell killing / cytotoxicity, A549 (FIG. 11b); assay type: cell-based; details: with 10 μM of emricasan
MiaPaca-2 = assay: Tumor cell killing / cytotoxicity, MiaPaca-2 (FIG. 11c); assay type: cell-based; details: with 10 μM of emricasan
PD-L1 = PD-L1 expression flow cytometry assay; assay type: cell-based, murine; details: MC38 cells; 1 μM Docetaxel, 10 μM Emricasan, or the combination; 24 h; FIG. 21
Method: PD-L1 expression flow cytometry assay: Cell surface PD-L1 expression was detected by flow cytometry assay. The cells were plated in 24-well plates and treated with 1 μM Docetaxel, 10 μM Emricasan, and the combination of the two drugs. Untreated cells were used as a control. After 24 h of treatment, the cells were dissociated and harvested for PD-L1 staining with BioLegend PE anti-mouse PD-L1 antibody (MIH7 clone). The PD-L1 expression was measured in BD Accuri C6 Plus flow cytometer, The mean density of PD-L1 was analyzed by FlowJo V10 software.

MC38 model = assay: In vivo tumor growth study, MC38 model; set-up: species or system mice
Method: (§1) In vivo studies: Female C57BL6 and Balb/C mice of 9 weeks of age were obtained from the Jackson lab, ME. Passages were made twice weekly with a 1:2 split and cultured in DMEM:F12 supplemented with 10% FBS (HyClone, Ft. Collins, Colo.). For inoculation, approximately 5-8×10^5 cells were suspended in 100 μL of PBS (Becton Dickinson Labware, Bedford, Mass.) and injected subcutaneously into the flanks of mice. Most mice developed palpable tumors within 5 days of inoculation. Tumor bearing mice are grouped in cohorts of 5-8 mice for dosing studies. Mice with tumor sizes of 50-100 mm^3 are randomized between treatment groups. Baseline tumor volumes were established and dosing initiation began on day 0. Emricasan was administered as a salt intratumorally or interperitoneally for 3-4 days. If docetaxel was used, it was administered interperitoneally or intravenously in Tween80/PEG300 or Tween80/ethanol with PBS the day before emricasan was given. Emricasan and docetaxel were co-formulated in Tween80/PEG300 and co-administered intratumorally after diluting with PBS. Tumor volumes were measured twice a week using standard calipers and calculated as […], with the length and width defined as the long and short axes, respectively. Measurement of body weight was initiated on day 0 and repeated once a week.

caspase-3 [4] = molecular target: T2, caspase-3 (Homo sapiens, UniProt P42574); assay: Caspase activity in A549 tumor cells (FIG. 10b); assay type: cell-based; set-up: endogenous in cells; host or cells: A549 cells
T2 sequence (P42574 29-175 limits assumed): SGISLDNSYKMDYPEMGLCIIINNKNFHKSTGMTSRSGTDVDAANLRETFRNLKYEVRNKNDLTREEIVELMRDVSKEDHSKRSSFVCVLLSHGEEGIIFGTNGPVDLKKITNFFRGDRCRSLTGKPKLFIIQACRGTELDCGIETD
T2 sequence (P42574 176-277 limits assumed): T1 sequence (P70677 176-277 limits assumed) with T3V, E5D, E6D, Q10H, S46A, L50Q, H53D, L77F, S79A

caspase-3 [5] = molecular target: T2, caspase-3; assay: Caspase activity in MiaPaca-2 tumor cells (FIG. 10c); assay type: cell-based; set-up: endogenous in cells; host or cells: MiaPaca-2 cells
B16 model = assay: In vivo tumor growth study, B16 model; set-up: species or system mice; details: emricasan amine salt intratumorally 5 mpk and 10 mpk q.d 4 days, FIG. 19
Method: as §1, with “Mice with tumor sizes of 50-100 mm^3 are randomized between treatment groups.” left out

CT26 model = assay: In vivo tumor growth study, CT26 model; set-up: species or system mice; details: emricasan amine salt intratumorally 5 mpk and 10 mpk q.d 4 days, FIG. 20
Method: as §1, with “Mice with tumor sizes of 50-100 mm^3 are randomized between treatment groups.” left out

[6] = agent alone: simvastatin 10 μM, venetoclax 3 μM, doxorubicin 1 μM, docetaxel 10 μM

SMILES: CC(=O)O[C@@]12CO[C@@H]1C[C@H](O)[C@@]1(C)C(=O)[C@H](O)C3=C(C)[C@@H](OC(=O)[C@H](O)[C@@H](NC(=O)OC(C)(C)C)c4ccccc4)C[C@@](O)([C@@H](OC(=O)c4ccccc4)[C@H]21)C3(C)C [docetaxel]
- apoptosis induction in MC38 cells (MC38 cells [1]; 24 hours): induced substantial apoptosis
- IFNβ production in MC38 cells (IFNβ; [6]): slightly reduced IFNβ production
- docetaxel concentration activating caspase most efficiently (caspase-3 [2]; MC38 cells, 24 h, FIG. 10a): ~1 µM
- docetaxel concentration killing tumor cells more efficiently (MC38 cells [3]; MC38, with 10 μM of emricasan, FIG. 11a): ~1 µM
- cytotoxicity in several tumor cells (MC38 cells [3]; several tumor cells (FIG. 11a-c: MC38, A549, MiaPaca-2)): showed cytotoxicity
- docetaxel concentration killing tumor cells more efficiently (A549): ~1 µM
- docetaxel concentration killing tumor cells more efficiently (MiaPaca-2): ~1 µM
- PD-L1 expression on tumor cells (PD-L1): upregulating PD-L1 expression
- tumor control, systemic docetaxel added to intratumoral emricasan (MC38 model; docetaxel 30 mpk single dose intraperitoneal (FIG. 14) or intravenous (FIG. 15), emricasan intratumoral 10 mpk q.d 3-4 days after docetaxel): improved tumor control of emricasan
- docetaxel concentration activating caspase most efficiently (caspase-3 [4]; A549): ~1 µM
- docetaxel concentration activating caspase most efficiently (caspase-3 [5]; MiaPaca-2): ~1 µM

SMILES: C[C@H](NC(=O)C(=O)Nc1ccccc1C(C)(C)C)C(=O)N[C@@H](CC(=O)O)C(=O)COc1c(F)c(F)cc(F)c1F [emricasan, (S)-3-((S)-2-(2-((2-(tert-butyl)phenyl)amino)-2-oxoacetamido)propanamido)-4-oxo-5-(2,3,5,6-tetrafluorophenoxy)pentanoic acid]
- apoptosis induced by docetaxel (MC38 cells [1]; addition of 10 μM emricasan to Docetaxel 10 μM, 24 hours, FIG. 5): significantly reduced the apoptosis
- apoptosis induced by doxorubicin (MC38 cells [1]; addition of 10 μM emricasan to Doxorubicin 1 μM, 24 hours, FIG. 4): significantly reduced the apoptosis
- apoptosis induced by simvastatin (MC38 cells [1]; addition of 10 μM emricasan to Simvastatin 10 μM, 24 hours, FIG. 2): significantly reduced the apoptosis
- apoptosis induced by venetoclax (MC38 cells [1]; addition of 10 μM emricasan to Venetoclax 3 μM, 24 hours, FIG. 3): significantly reduced the apoptosis
- apoptosis in MC38 cells (MC38 cells [1]; emricasan alone, 24 hours treatment, FIG. 1): partially blocked the apoptosis
- IFNβ production in docetaxel treated MC38 cells (IFNβ; addition of 10 μM emricasan to docetaxel 10 μM, FIG. 9): significantly enhanced the IFNβ production
- IFNβ production in doxorubicin treated MC38 cells (IFNβ; addition of 10 μM emricasan to doxorubicin 1 μM, FIG. 8): significantly enhanced the IFNβ production
- IFNβ production in simvastatin treated MC38 cells (IFNβ; addition of 10 μM emricasan to simvastatin 10 μM, FIG. 7): significantly enhanced the IFNβ production
- IFNβ production in MC38 cells (IFNβ; emricasan alone, FIG. 6): slightly enhanced the IFNβ production
- inhibition of caspase activity in tumor cells (caspase-3 [2]; 10 μM of emricasan, docetaxel-treated MC38 cells, FIG. 10a): fully inhibiting the caspase activity
- concentration at which emricasan began to effectively inhibit the caspase-3 activity (caspase-3 [2]; tumor cells, FIG. 10a-c): ~1 µM
- concentration at which emricasan reached the maximum activity (caspase-3 inhibition) (caspase-3 [2]; tumor cells, FIG. 10a-c): ~10 µM
- PD-L1 expression on tumor cells (PD-L1): upregulated the PD-L1 expression
- rejection of rechallenged tumor in cured mice (MC38 model; cured mice from the FIG. 15 study, rechallenged, FIG. 16): able to reject rechallenged tumor; also recorded: able to reject rechallenged tumors more efficiently
- systemic tumor control, systemic emricasan added to intravenous docetaxel (MC38 model; docetaxel intravenous 50 mpk single dose, emricasan intraperitoneal 20 mpk b.i.d 3 days after docetaxel, FIG. 18): improved the systemic tumor control of intravenously administered docetaxel
- distal tumor control (MC38 model; emricasan alone intratumorally 10 mpk q.d 4 days, FIG. 13): moderate
- tumor control at the site of injection (MC38 model; emricasan alone intratumorally 10 mpk q.d 4 days, small MC38 tumors (~50 mm^3), FIG. 12): able control small MC38 tumors
- number of cured mice (MC38 model; study of FIG. 15: docetaxel intravenous 30 mpk single dose, emricasan intratumoral 10 mpk q.d 4 days): 5 mice
- tumor control efficacy (B16 model): produced tumor control efficacy
- tumor control efficacy (CT26 model): produced tumor control efficacy
- inhibition of caspase activity in tumor cells (caspase-3 [4]; 10 μM of emricasan, docetaxel-treated A549): fully inhibiting the caspase activity
- inhibition of caspase activity in tumor cells (caspase-3 [5]; 10 μM of emricasan, docetaxel-treated MiaPaca-2): fully inhibiting the caspase activity

SMILES: COc1cccc2c1C(=O)c1c(O)c3c(c(O)c1C2=O)C[C@@](O)(C(=O)CO)C[C@@H]3O[C@H]1C[C@H](N)[C@H](O)[C@H](C)O1 [doxorubicin]
- apoptosis induction in MC38 cells (MC38 cells [1]; 24 hours): induced substantial apoptosis
- IFNβ production in MC38 cells (IFNβ; [6]): slightly reduced IFNβ production
